What was measured:
Type in all cases: cell-based
[1] = system: HCT-116 colorectal cancer cell line; assay: CCK-8 proliferation inhibition; settings: Homo sapiens, HCT-116, 72 h, concentration of 30 μM; 72 hours; CCK-8; read-out: HCT116 inhibition rate/%
Outline: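 Cells seeded at 2000 cells/well, cultured overnight at 37 °C, 5% CO2, then exposed to compound (DMSO; control 1‰ DMSO) for 72 h in McCoy's 5A with 10% newborn bovine serum. Viability read with 1:10 diluted CCK-8.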

[2] = system: methicillin-sensitive Staphylococcus aureus (MSSA); assay: MIC, two-fold agar dilution (CLSI), clinical isolates
Description: (§1) 1. The invention adopts the two-fold agar dilution method recommended by the operating procedure of antimicrobial susceptibility testing set by American Clinical and Laboratory Standards Institute (CLSI) to determine the Minimum Inhibitory Concentration (MIC) of the test samples against the tested strains.

[3] = system: Enterococcus faecalis (EFA); assay: as above
Description: as §1

[4] = system: Streptococcus pneoumoniae (SPN); assay: as above
Description: as §1

[5] = system: Enterococcus faecium (EFM); assay: as above
Description: as §1

[6] = system: Moraxella catarrhalis (BCA); assay: as above; settings: for Anti-bacterial activity (MIC), strain BCA 14-10: clinical isolate BCA 14-10
Description: as §1

[7] = system: methicillin-resistant Staphylococcus aureus (MRSA); assay: as above
Description: as §1

[8] = system: Escherichia coli (including ESBLs, non-ESBLs); assay: as above
Description: as §1

[9] = system: methicillin-resistant Staphylococcus epidermidis (MRSE); assay: as above
Description: as §1

[10] = system: methicillin-sensitive Staphylococcus epidermidis (MSSE); assay: as above
Description: as §1

O=CN(O)C[C@@H](CC1CCCC1)C(=O)N1CC2(CC2)C[C@H]1C(=O)Nc1ccno1 [Example 37, (S)-5-((R)-3-cyclopentyl-2-((N-hydroxyformamido)methyl)propionyl)-N-(isoxazol-5-yl)-5-azaspiro[2.4]heptane-6-carboxamide]
16%: inhibition at 30 µM [1]
3 µg/mL: Anti-bacterial activity (MIC), strain BCA 14-10 [6] | MIC (anti-bacterial activity) ([6]; strain BCA 14-7)
4 µg/mL: MIC (anti-bacterial activity) ([3]; strain EFA 15-1) | MIC (anti-bacterial activity) ([3]; strain EFA 15-2) | MIC (anti-bacterial activity) ([3]; strain EFA 15-3) | MIC (anti-bacterial activity) ([3]; strain EFA 15-4) | MIC (anti-bacterial activity) ([3]; strain EFA 15-5) | MIC (anti-bacterial activity) ([3]; strain EFA 15-6) | MIC (anti-bacterial activity) ([3]; strain EFA 15-9) | MIC (anti-bacterial activity) ([4]; strain SPN 16-4)
1 µg/mL: MIC (anti-bacterial activity) ([2]; strain MSSA 15-3) | MIC (anti-bacterial activity) ([2]; strain MSSA 15-4) | MIC (anti-bacterial activity) ([2]; strain MSSA 15-6) | MIC (anti-bacterial activity) ([5]; strain EFM 15-5) | MIC (anti-bacterial activity) ([7]; strain MRSA 15-2) | MIC (anti-bacterial activity) ([9]; strain MRSE 15-2) | MIC (anti-bacterial activity) ([9]; strain MRSE 15-3) | MIC (anti-bacterial activity) ([9]; strain MRSE 15-7) | MIC (anti-bacterial activity) ([10]; strain MSSE 15-3) | MIC (anti-bacterial activity) ([10]; strain MSSE 15-4) | MIC (anti-bacterial activity) ([10]; strain MSSE 15-5) | MIC (anti-bacterial activity) ([10]; strain MSSE 15-6)
2 µg/mL: MIC (anti-bacterial activity) ([5]; strain EFM 15-1) | MIC (anti-bacterial activity) ([5]; strain EFM 15-2) | MIC (anti-bacterial activity) ([5]; strain EFM 15-3) | MIC (anti-bacterial activity) ([5]; strain EFM 15-4) | MIC (anti-bacterial activity) ([5]; strain EFM 15-6) | MIC (anti-bacterial activity) ([6]; strain BCA 14-1) | MIC (anti-bacterial activity) ([6]; strain BCA 14-4) | MIC (anti-bacterial activity) ([6]; strain BCA 14-5) | MIC (anti-bacterial activity) ([6]; strain BCA 14-6) | MIC (anti-bacterial activity) ([6]; strain BCA 14-8)
0.5 µg/mL: MIC (anti-bacterial activity) ([2]; strain MSSA 15-5) | MIC (anti-bacterial activity) ([4]; strain SPN 16-2) | MIC (anti-bacterial activity) ([7]; strain MRSA 15-1) | MIC (anti-bacterial activity) ([7]; strain MRSA 15-3) | MIC (anti-bacterial activity) ([9]; strain MRSE 15-1)
0.2 µg/mL: MIC (anti-bacterial activity) ([7]; strain MRSA 15-4)
32 µg/mL: MIC (anti-bacterial activity) ([8]; strain ECO+ 15-1) | MIC (anti-bacterial activity) ([8]; strain ECO+ 15-2) | MIC (anti-bacterial activity) ([8]; strain ECO+ 15-3) | MIC (anti-bacterial activity) ([8]; strain ECO+ 15-4) | MIC (anti-bacterial activity) ([8]; strain ECO− 15-1) | MIC (anti-bacterial activity) ([8]; strain ECO− 15-2) | MIC (anti-bacterial activity) ([8]; strain ECO− 15-3) | MIC (anti-bacterial activity) ([8]; strain ECO− 15-4)

Cc1cc(NC(=O)[C@@H]2CC3(CC3)CN2C(=O)[C@H](CC2CCCC2)CN(O)C=O)no1 [Example 39]
1 µg/mL: MIC (anti-bacterial activity) ([2]; strain MSSA 15-3) | MIC (anti-bacterial activity) ([2]; strain MSSA 15-4) | MIC (anti-bacterial activity) ([2]; strain MSSA 15-5) | MIC (anti-bacterial activity) ([2]; strain MSSA 15-6) | MIC (anti-bacterial activity) ([3]; strain EFA 15-3) | MIC (anti-bacterial activity) ([5]; strain EFM 15-1) | MIC (anti-bacterial activity) ([5]; strain EFM 15-2) | MIC (anti-bacterial activity) ([5]; strain EFM 15-4) | MIC (anti-bacterial activity) ([5]; strain EFM 15-5) | MIC (anti-bacterial activity) ([5]; strain EFM 15-6) | MIC (anti-bacterial activity) ([6]; strain BCA 14-1) | MIC (anti-bacterial activity) ([6]; strain BCA 14-4) | MIC (anti-bacterial activity) ([6]; strain BCA 14-6) | MIC (anti-bacterial activity) ([6]; strain BCA 14-7) | MIC (anti-bacterial activity) ([6]; strain BCA 14-8) | MIC (anti-bacterial activity) ([7]; strain MRSA 15-1) | MIC (anti-bacterial activity) ([7]; strain MRSA 15-2) | MIC (anti-bacterial activity) ([7]; strain MRSA 15-3) | MIC (anti-bacterial activity) ([7]; strain MRSA 15-4) | MIC (anti-bacterial activity) ([9]; strain MRSE 15-1) | MIC (anti-bacterial activity) ([9]; strain MRSE 15-2) | MIC (anti-bacterial activity) ([9]; strain MRSE 15-3) | MIC (anti-bacterial activity) ([9]; strain MRSE 15-7) | MIC (anti-bacterial activity) ([10]; strain MSSE 15-3) | MIC (anti-bacterial activity) ([10]; strain MSSE 15-4) | MIC (anti-bacterial activity) ([10]; strain MSSE 15-5) | MIC (anti-bacterial activity) ([10]; strain MSSE 15-6)
4 µg/mL: MIC (anti-bacterial activity) ([3]; strain EFA 15-1) | MIC (anti-bacterial activity) ([3]; strain EFA 15-2) | MIC (anti-bacterial activity) ([3]; strain EFA 15-4) | MIC (anti-bacterial activity) ([3]; strain EFA 15-5) | MIC (anti-bacterial activity) ([3]; strain EFA 15-6) | MIC (anti-bacterial activity) ([3]; strain EFA 15-9) | MIC (anti-bacterial activity) ([4]; strain SPN 16-4)
0.5 µg/mL: MIC (anti-bacterial activity) ([4]; strain SPN 16-2) | MIC (anti-bacterial activity) ([5]; strain EFM 15-3) | Anti-bacterial activity (MIC), strain BCA 14-10 [6] | MIC (anti-bacterial activity) ([6]; strain BCA 14-5)
16 µg/mL: MIC (anti-bacterial activity) ([8]; strain ECO+ 15-1) | MIC (anti-bacterial activity) ([8]; strain ECO+ 15-4)
-10%: inhibition at 30 µM [1]
32 µg/mL: MIC (anti-bacterial activity) ([8]; strain ECO+ 15-2) | MIC (anti-bacterial activity) ([8]; strain ECO+ 15-3) | MIC (anti-bacterial activity) ([8]; strain ECO− 15-1) | MIC (anti-bacterial activity) ([8]; strain ECO− 15-2) | MIC (anti-bacterial activity) ([8]; strain ECO− 15-3) | MIC (anti-bacterial activity) ([8]; strain ECO− 15-4)

O=CN(O)C[C@@H](CC1CCCC1)C(=O)N1CC2(CC2)C[C@H]1C(=O)Nc1nncs1 [Example 41, (S)-5-((R)-3-cyclopentyl-2-((N-hydroxyformamido)methyl)propionyl)-N-(1,3,4-thiadiazol-2-yl)-5-azaspiro[2.4]heptane-6-carboxamide]
24%: inhibition at 30 µM [1]
0.25 µg/mL: Anti-bacterial activity (MIC), strain SPN 16-2 ([4]; clinical isolate SPN 16-2) | Anti-bacterial activity (MIC), strain EFM 15-3 ([5]; clinical isolate EFM 15-3) | Anti-bacterial activity (MIC), strain BCA 14-5 ([6]; clinical isolate BCA 14-5)
2 µg/mL: Anti-bacterial activity (MIC), strain EFM 15-2 ([5]; clinical isolate EFM 15-2) | Anti-bacterial activity (MIC), strain EFM 15-6 ([5]; clinical isolate EFM 15-6) | Anti-bacterial activity (MIC), strain BCA 14-4 ([6]; clinical isolate BCA 14-4)
32 µg/mL: Anti-bacterial activity (MIC), strain ECO+ 15-1 ([8]; clinical isolate ECO+ 15-1) | Anti-bacterial activity (MIC), strain ECO+ 15-2 ([8]; clinical isolate ECO+ 15-2) | Anti-bacterial activity (MIC), strain ECO+ 15-3 ([8]; clinical isolate ECO+ 15-3) | Anti-bacterial activity (MIC), strain ECO+ 15-4 ([8]; clinical isolate ECO+ 15-4) | Anti-bacterial activity (MIC), strain ECO− 15-1 ([8]; clinical isolate ECO− 15-1) | Anti-bacterial activity (MIC), strain ECO− 15-2 ([8]; clinical isolate ECO− 15-2) | Anti-bacterial activity (MIC), strain ECO− 15-3 ([8]; clinical isolate ECO− 15-3) | Anti-bacterial activity (MIC), strain ECO− 15-4 ([8]; clinical isolate ECO− 15-4)
0.5 µg/mL: Anti-bacterial activity (MIC), strain MSSA 15-4 ([2]; clinical isolate MSSA 15-4) | Anti-bacterial activity (MIC), strain MSSA 15-5 ([2]; clinical isolate MSSA 15-5) | Anti-bacterial activity (MIC), strain MSSA 15-6 ([2]; clinical isolate MSSA 15-6) | Anti-bacterial activity (MIC), strain BCA 14-10 [6] | Anti-bacterial activity (MIC), strain MRSA 15-1 ([7]; clinical isolate MRSA 15-1) | Anti-bacterial activity (MIC), strain MRSA 15-3 ([7]; clinical isolate MRSA 15-3) | Anti-bacterial activity (MIC), strain MRSE 15-1 ([9]; clinical isolate MRSE 15-1)
1 µg/mL: Anti-bacterial activity (MIC), strain MSSA 15-3 ([2]; clinical isolate MSSA 15-3) | Anti-bacterial activity (MIC), strain EFA 15-3 ([3]; clinical isolate EFA 15-3) | Anti-bacterial activity (MIC), strain EFM 15-1 ([5]; clinical isolate EFM 15-1) | Anti-bacterial activity (MIC), strain EFM 15-4 ([5]; clinical isolate EFM 15-4) | Anti-bacterial activity (MIC), strain EFM 15-5 ([5]; clinical isolate EFM 15-5) | Anti-bacterial activity (MIC), strain BCA 14-1 ([6]; clinical isolate BCA 14-1) | Anti-bacterial activity (MIC), strain BCA 14-7 ([6]; clinical isolate BCA 14-7) | Anti-bacterial activity (MIC), strain MRSA 15-2 ([7]; clinical isolate MRSA 15-2) | Anti-bacterial activity (MIC), strain MRSA 15-4 ([7]; clinical isolate MRSA 15-4) | Anti-bacterial activity (MIC), strain MRSE 15-2 ([9]; clinical isolate MRSE 15-2) | Anti-bacterial activity (MIC), strain MRSE 15-3 ([9]; clinical isolate MRSE 15-3) | Anti-bacterial activity (MIC), strain MRSE 15-7 ([9]; clinical isolate MRSE 15-7) | Anti-bacterial activity (MIC), strain MSSE 15-3 ([10]; clinical isolate MSSE 15-3) | Anti-bacterial activity (MIC), strain MSSE 15-4 ([10]; clinical isolate MSSE 15-4) | Anti-bacterial activity (MIC), strain MSSE 15-5 ([10]; clinical isolate MSSE 15-5) | Anti-bacterial activity (MIC), strain MSSE 15-6 ([10]; clinical isolate MSSE 15-6)
4 µg/mL: Anti-bacterial activity (MIC), strain EFA 15-1 ([3]; clinical isolate EFA 15-1) | Anti-bacterial activity (MIC), strain EFA 15-2 ([3]; clinical isolate EFA 15-2) | Anti-bacterial activity (MIC), strain EFA 15-4 ([3]; clinical isolate EFA 15-4) | Anti-bacterial activity (MIC), strain EFA 15-5 ([3]; clinical isolate EFA 15-5) | Anti-bacterial activity (MIC), strain EFA 15-6 ([3]; clinical isolate EFA 15-6) | Anti-bacterial activity (MIC), strain EFA 15-9 ([3]; clinical isolate EFA 15-9) | Anti-bacterial activity (MIC), strain SPN 16-4 ([4]; clinical isolate SPN 16-4) | Anti-bacterial activity (MIC), strain BCA 14-6 ([6]; clinical isolate BCA 14-6) | Anti-bacterial activity (MIC), strain BCA 14-8 ([6]; clinical isolate BCA 14-8)

Reference: US10738028B2, “Spiro three-membered ring, spiro five-membered ring peptide deformylase inhibitor and use thereof in antibacteria and anti-tumor” (priority 2016, dated 2020)
